Source: the supplement of paper PMC10307832

Experiments:
Test in all cases: relative viability (nuclei count vs DMSO), 5 days (fraction); higher = more cells survive
[1] = compound: CN(C)CC1=CC(=CC=C1)N=C(C2=CC=CC=C2)C3=C(NC4=C3C=CC(=C4)C(=O)N(C)C)O + Cc1cc(Nc2cc(N3CCN(C)CC3)nc(Sc3ccc(NC(=O)C4CC4)cc3)n2)n[nH]1 [Tozasertib] (partner 0.1 µM)
Procedure, shortened: (§1)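 Relative viability divides the nuclei count in treated wells by that in vehicle wells. Lung cancer cell lines were seeded in 1536-well plates, dosed by pin tool the next day, and fixed and stained after 5 days in one step with final 0.05% Triton X-100, 1% formaldehyde and 1 ug/ml Hoechst. Dosing was a single drug or a fixed anchor-drug dose plus five library-drug doses (not always all listed) in √10 steps, and values are medians of duplicate plates imaged at 4×.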

[2] = compound: CN(C)CC1=CC(=CC=C1)N=C(C2=CC=CC=C2)C3=C(NC4=C3C=CC(=C4)C(=O)N(C)C)O + N=C(N)NC(=N)NCCc1ccccc1 [Phenformin] (partner 250 µM)
Procedure, shortened: as §1

[3] = compound: CN(C)CC1=CC(=CC=C1)N=C(C2=CC=CC=C2)C3=C(NC4=C3C=CC(=C4)C(=O)N(C)C)O + CC1(C)CCC(c2ccc(Cl)cc2)=C(CN2CCN(c3ccc(C(=O)NS(=O)(=O)c4ccc(N[C@H](CCN5CCOCC5)CSc5ccccc5)c(S(=O)(=O)C(F)(F)F)c4)cc3)CC2)C1 [Navitoclax] (partner 0.5 µM)
Procedure, shortened: as §1

[4] = compound: CN(C)CC1=CC(=CC=C1)N=C(C2=CC=CC=C2)C3=C(NC4=C3C=CC(=C4)C(=O)N(C)C)O
Procedure, shortened: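 On vehicle-anchored 1536-well plates, lung cancer cell lines held overnight at 37 °C were pinned with five library-drug doses (not always all listed) spaced by √10. With no medium change over 5 days, they were then fixed, permeabilised and Hoechst-stained in one step and imaged at 4×. MetaXpress counted nuclei, and viability is the median across plates of treated-well over vehicle-well nuclei. Acceptance needed control CV below 25% and at least one doubling.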

Row | Cell Line | relative viability ([1]; first compound 0.08 µM) | relative viability ([1]; first compound 0.253 µM) | relative viability ([1]; first compound 0.8 µM) | relative viability ([1]; first compound 2.53 µM) | relative viability ([1]; first compound 8 µM) | relative viability ([2]; first compound 0.08 µM) | relative viability ([2]; first compound 0.253 µM) | relative viability ([2]; first compound 0.8 µM) | relative viability ([2]; first compound 2.53 µM) | relative viability ([2]; first compound 8 µM) | relative viability ([3]; first compound 0.08 µM) | relative viability ([3]; first compound 0.253 µM) | relative viability ([3]; first compound 0.8 µM) | relative viability ([3]; first compound 2.53 µM) | relative viability ([3]; first compound 8 µM) | relative viability ([4]; 0.08 µM) | relative viability ([4]; 0.253 µM) | relative viability ([4]; 0.8 µM) | relative viability ([4]; 2.53 µM) | relative viability ([4]; 8 µM)
1 | HCC-44 | 1.08 | 0.836 | 1.03 | 0.927 | 0.862 | 0.179 | 0.4 | 0.185 | 0.192 | 0.176 | 0.948 | 0.95 | 0.942 | 0.995 | 0.994 | 1.08 | 0.987 | 1.03 | 0.949 | 1.05
2 | HCC-78 | 0.507 | 0.426 | 0.403 | 0.383 | 0.364 | 0.642 | 0.812 | 0.675 | 0.698 | 0.738 | 0.894 | 0.734 | 0.807 | 0.75 | 0.769 | 0.993 | 0.95 | 0.967 | 1.02 | 0.958
3 | HCC-366 | 0.17 | 0.133 | 0.131 | 0.153 | 0.118 | 0.648 | 0.612 | 0.641 | 0.566 | 0.601 | 0.969 | 1.03 | 1.07 | 1.07 | 0.901 | 1 | 0.985 | 1.01 | 0.978 | 0.955
4 | HCC-827 | 0.435 | 0.457 | 0.376 | 0.408 | 0.396 | 0.374 | 0.404 | 0.323 | 0.396 | 0.356 | 1.04 | 1.02 | 1.06 | 1 | 0.941 | 0.999 | 1.03 | 1.06 | 0.953 | 0.916
5 | HOP-62 | 0.389 | 0.383 | 0.364 | 0.334 | 0.376 | 0.7 | 0.64 | 0.677 | 0.601 | 0.629 | 1.05 | 0.94 | 1.03 | 1.04 | 0.977 | 1.05 | 0.965 | 1.04 | 0.981 | 0.97
6 | IA-LM |  |  |  |  |  |  |  |  |  |  |  | 0.848 | 0.766 | 0.915 | 1.02 | 0.961 | 0.871 | 1.03 | 1.07 | 1.13
7 | LC-2-ad | 0.503 | 0.409 | 0.415 | 0.492 | 0.407 | 0.623 | 0.582 | 0.563 | 0.526 | 0.575 | 0.456 | 0.515 | 0.429 | 0.515 | 0.338 | 1.01 | 1.04 | 1.08 | 0.925 | 0.84
8 | LCLC-97TM1 | 0.219 | 0.256 | 0.224 | 0.283 | 0.255 | 0.466 | 0.408 | 0.475 | 0.438 | 0.422 | 0.325 | 0.276 | 0.362 | 0.395 | 0.734 | 0.907 | 1.04 | 1.02 | 1.13 | 1.13
9 | LCLC-103H | 0.455 | 0.524 | 0.551 | 0.516 | 0.509 | 0.347 | 0.368 | 0.304 | 0.337 | 0.291 |  |  |  |  |  | 0.951 | 1.07 | 0.931 | 0.986 | 0.915
10 | LK-2 | 0.162 | 0.165 | 0.171 | 0.188 | 0.198 | 0.511 | 0.475 | 0.306 | 0.374 | 0.244 | 1.06 | 0.784 | 0.897 | 0.789 | 0.761 | 1.13 | 1.04 | 0.909 | 0.991 | 0.853
11 | NCI-H358 | 0.105 | 0.0937 | 0.0915 | 0.096 | 0.116 | 0.349 | 0.343 | 0.201 | 0.303 | 0.313 |  |  |  |  |  | 0.94 | 0.789 | 0.705 | 0.879 | 0.784
12 | NCI-H522 | 0.544 | 0.46 | 0.546 | 0.587 | 0.62 | 0.688 | 0.646 | 0.66 | 0.621 | 0.655 |  |  |  |  |  | 1.1 | 1.01 | 0.829 | 0.958 | 0.913
13 | NCI-H650 | 0.815 | 0.754 | 0.683 | 0.718 | 0.663 | 0.49 | 0.495 | 0.459 | 0.43 | 0.433 |  |  |  |  |  | 0.941 | 1.02 | 1.1 | 0.963 | 0.782
14 | NCI-H661 | 0.374 | 0.345 | 0.355 | 0.319 | 0.367 | 0.274 | 0.284 | 0.244 | 0.293 | 0.262 |  |  |  |  |  | 0.975 | 1.05 | 1.01 | 0.958 | 0.941
15 | NCI-H1563 |  |  |  |  |  | 0.641 | 0.7 | 0.654 | 0.648 | 0.658 |  |  |  |  |  | 1.02 | 1 | 0.905 | 0.861 | 0.783
16 | NCI-H1648 | 0.419 |  | 0.572 | 0.383 | 0.396 |  |  |  |  |  |  |  |  |  |  | 0.851 | 0.657 | 0.749 | 0.884 | 0.915
17 | NCI-H1703 |  |  |  |  |  |  |  |  |  |  | 1.07 | 1.17 | 1.1 | 0.717 | 0.222 | 0.989 | 0.847 | 1.11 | 0.63 | 0.349
18 | NCI-H1792 |  |  |  |  |  | 0.255 | 0.211 | 0.357 | 0.179 | 0.231 | 0.606 | 0.594 | 0.573 | 0.61 | 0.662 | 0.997 | 1.05 | 0.881 | 0.949 | 0.8
19 | NCI-H2342 | 0.497 | 0.601 | 0.549 | 0.45 | 0.613 | 0.572 | 0.685 | 0.574 | 0.647 | 0.668 |  |  |  |  |  | 1.02 | 1.04 | 0.904 | 1.15 | 1.02
